What is called EC50 is the concentration that produces a half-maximal response.

This is an account of results in patent US20120077737A1, “HEPATITIS C INHIBITOR COMPOUNDS” (priority 2009, published 2012).

In assay [1] the test system is HCV genotype 1a subgenomic replicon with NS3 resistance mutation R155K. The assay is described as follows: HCV replicon RNA replication assay, R155K 1a. Type of assay: cell-based, HCV genotype 1a (strain H77), Huh-7 cells. The note with it: Hepatitis C virus, Huh-7, 72 h, read-out: R155K 1a Ec50 (nM). Background: Replicon systems follow genome replication, usually without infectious particles.

The subject of assay [2] is HCV genotype 1b subgenomic replicon with NS3 resistance mutation D168V. The assay is described as follows: HCV replicon RNA replication assay, D168V 1b. Type of assay: cell-based, HCV genotype 1b (Con-1), Huh-7 cells. The note with it: Hepatitis C virus, Huh-7, 72 h, read-out: D168V 1b Ec50 (nM).
Assay [3] relates to HCV genotype 1a subgenomic replicon with NS3 resistance mutation D168V. The assay is described as follows: HCV replicon RNA replication assay, D168V 1a. Type of assay: cell-based, HCV genotype 1a (strain H77), Huh-7 cells. To be noted: Hepatitis C virus, Huh-7, 72 h, read-out: D168V 1a Ec50 (nM).
Assay [4] deals with HCVPV1a subgenomic replicon (wild type 1a). The assay is described as follows: HCV replicon RNA replication assay, wild type 1a. Type of assay: cell-based, HCV genotype 1a (strain H77), Huh-7 cells. To be noted: Hepatitis C virus; Table 1; luciferase replicon, Huh-7, 72 h; read-out: WT 1a Ec50.
The test system of assay [5] is HCVPV1b subgenomic replicon (wild type 1b). The assay is described as follows: HCV replicon RNA replication assay, wild type 1b. Type of assay: cell-based, HCV genotype 1b (Con-1), Huh-7 cells. The note with it: Hepatitis C virus; Table 1; luciferase replicon, Huh-7, 72 h; read-out: WT 1b Ec50.

As for `Cc1c(Cl)ccc2c(O[C@@H]3C[C@H]4C(=O)N[C@]5(C(=O)NS(=O)(=O)C6(C)CC6)C[C@H]5/C=C\CCCCC[C@H](NC(=O)c5ccn(C)n5)C(=O)N4C3)cc(OC(C)C)nc12` [Compound 1003, (2R,6S,12Z,13aS,14aR,16aS)-2-{[7-chloro-8-methyl-2-(propan-2-yloxy)quinolin-4-yl]oxy}-N-[(1-methylcyclopropyl)sulfonyl]-6-{[(1-methyl-1H-pyrazol-3-yl)carbonyl]amino}-5,16-dioxo-1,2,3,6,7,8,9,10,11,13a,14,15,16,16a-tetradecahydrocyclopropa[e]pyrrolo[1,2-a][1,4]diazacyclopentadecine-14a(5H)-carboxamide], the EC50 was found to be 7.7 nM in assay [1]; 0.12 nM in assay [2]; 6.9 nM in assay [3]; 0.24 nM in assay [4]; 0.21 nM in assay [5].
The matching figures for `COc1ccc2c(O[C@@H]3C[C@H]4C(=O)N[C@]5(C(=O)NS(=O)(=O)C6(C)CC6)C[C@H]5/C=C\CCCCC[C@H](NC(=O)c5ccn(CCF)n5)C(=O)N4C3)cc(OC(C)C)nc2c1C` [Compound 1004, (2R,6S,12Z,13aS,14aR,16aS)-6-({[1-(2-fluoroethyl)-1H-pyrazol-3-yl]carbonyl}amino)-2-{[7-methoxy-8-methyl-2-(propan-2-yloxy)quinolin-4-yl]oxy}-N-[(1-methylcyclopropyl)sulfonyl]-5,16-dioxo-1,2,3,6,7,8,9,10,11,13a,14,15,16,16a-tetradecahydrocyclopropa[e]pyrrolo[1,2-a][1,4]diazacyclopentadecine-14a(5H)-carboxamide]: 1.3 nM, 0.15 nM, 1.8 nM, 0.24 nM and 0.27 nM.
The matching figures for `COc1ccc2c(O[C@@H]3C[C@H]4C(=O)N[C@]5(C(=O)NS(=O)(=O)C6(C)CC6)C[C@H]5/C=C\CCCCC[C@H](NC(=O)c5ccn(CC(F)(F)F)n5)C(=O)N4C3)cc(OC(C)C)nc2c1C` [Compound 1005, (2R,6S,12Z,13aS,14aR,16aS)-2-{[7-methoxy-8-methyl-2-(propan-2-yloxy)quinolin-4-yl]oxy}-N-[(1-methylcyclopropyl)sulfonyl]-5,16-dioxo-6-({[1-(2,2,2-trifluoroethyl)-1H-pyrazol-3-yl]carbonyl}amino)-1,2,3,6,7,8,9,10,11,13a,14,15,16,16a-tetradecahydrocyclopropa[e]pyrrolo[1,2-a][1,4]diazacyclopentadecine-14a(5H)-carboxamide]: 0.85 nM, 0.17 nM, 1.4 nM, 0.18 nM and 0.16 nM.
Take `COc1ccc2c(O[C@@H]3C[C@H]4C(=O)N[C@]5(C(=O)NS(=O)(=O)C6(C)CC6)C[C@H]5/C=C\CCCCC[C@H](NC(=O)c5cnn(C)n5)C(=O)N4C3)cc(OC(C)C)nc2c1C` [Compound 1006, (2R,6S,12Z,13aS,14aR,16aS)-2-{[7-methoxy-8-methyl-2-(propan-2-yloxy)quinolin-4-yl]oxy}-N-[(1-methylcyclopropyl)sulfonyl]-6-{[(2-methyl-2H-1,2,3-triazol-4-yl)carbonyl]amino}-5,16-dioxo-1,2,3,6,7,8,9,10,11,13a,14,15,16,16a-tetradecahydrocyclopropa[e]pyrrolo[1,2-a][1,4]diazacyclopentadecine-14a(5H)-carboxamide]: the EC50 in assay [1] was 2.2 nM; in assay [2], 0.17 nM; in assay [3], 9.6 nM; in assay [4], 0.19 nM; in assay [5] it was 0.18 nM.
The matching figures for `COc1ccc2c(O[C@@H]3C[C@H]4C(=O)N[C@]5(C(=O)NS(=O)(=O)C6(C)CC6)C[C@H]5/C=C\CCCCC[C@H](NC(=O)c5ccn(C)n5)C(=O)N4C3)cc(OC(C)C)nc2c1C` [Compound 1007, (2R,6S,12Z,13aS,14aR,16aS)-2-{[7-methoxy-8-methyl-2-(propan-2-yloxy)quinolin-4-yl]oxy}-N-[(1-methylcyclopropyl)sulfonyl]-6-{[(1-methyl-1H-pyrazol-3-yl)carbonyl]amino}-5,16-dioxo-1,2,3,6,7,8,9,10,11,13a,14,15,16,16a-tetradecahydrocyclopropa[e]pyrrolo[1,2-a][1,4]diazacyclopentadecine-14a(5H)-carboxamide]: 1.7 nM, 0.18 nM, 4.5 nM, 0.25 nM and 0.2 nM.
The matching figures for `Cc1c(F)ccc2c(O[C@@H]3C[C@H]4C(=O)N[C@]5(C(=O)NS(=O)(=O)C6(C)CC6)C[C@H]5/C=C\CCCCC[C@H](NC(=O)c5ccn(C)n5)C(=O)N4C3)cc(OC(C)C)nc12` [Compound 1008, (2R,6S,12Z,13aS,14aR,16aS)-2-{[7-fluoro-8-methyl-2-(propan-2-yloxy)quinolin-4-yl]oxy}-N-[(1-methylcyclopropyl)sulfonyl]-6-{[(1-methyl-1H-pyrazol-3-yl)carbonyl]amino}-5,16-dioxo-1,2,3,6,7,8,9,10,11,13a,14,15,16,16a-tetradecahydrocyclopropa[e]pyrrolo[1,2-a][1,4]diazacyclopentadecine-14a(5H)-carboxamide]: 1.9 nM, 0.2 nM, 6.6 nM, 0.24 nM and 0.35 nM.
The matching figures for `COCc1ccc(C(=O)N[C@H]2CCCCC/C=C\[C@@H]3C[C@@]3(C(=O)NS(=O)(=O)C3CC3)NC(=O)[C@@H]3C[C@@H](Oc4cc(OC(C)C)nc5c(C)c(OC)ccc45)CN3C2=O)s1` [Compound 1009, (2R,6S,12Z,13aS,14aR,16aS)-N-(cyclopropylsulfonyl)-2-{[7-methoxy-8-methyl-2-(propan-2-yloxy)quinolin-4-yl]oxy}-6-({[5-(methoxymethyl)thiophen-2-yl]carbonyl}amino)-5,16-dioxo-1,2,3,6,7,8,9,10,11,13a,14,15,16,16a-tetradecahydrocyclopropa[e]pyrrolo[1,2-a][1,4]diazacyclopentadecine-14a(5H)-carboxamide]: 3.6 nM, 0.24 nM, 7.2 nM, 0.43 nM and 0.46 nM.
Regarding `COc1ccc2c(O[C@@H]3C[C@H]4C(=O)N[C@]5(C(=O)NS(=O)(=O)C6(C)CC6)C[C@H]5/C=C\CCCCC[C@H](NC(=O)c5cnn(CC(F)F)n5)C(=O)N4C3)cc(OC(C)C)nc2c1C` [Compound 1010, (2R,6S,12Z,13aS,14aR,16aS)-6-({[2-(2,2-difluoroethyl)-2H-1,2,3-triazol-4-yl]carbonyl}amino)-2-{[7-methoxy-8-methyl-2-(propan-2-yloxy)quinolin-4-yl]oxy}-N-[(1-methylcyclopropyl)sulfonyl]-5,16-dioxo-1,2,3,6,7,8,9,10,11,13a,14,15,16,16a-tetradecahydrocyclopropa[e]pyrrolo[1,2-a][1,4]diazacyclopentadecine-14a(5H)-carboxamide], the EC50 worked out at 4.6 nM in assay [1]; 0.26 nM in assay [2]; 5.6 nM in assay [3]; 0.3 nM in assay [4]; 0.37 nM in assay [5].
The matching figures for `COc1ccc2c(O[C@@H]3C[C@H]4C(=O)N[C@]5(C(=O)NS(=O)(=O)C6CC6)C[C@H]5/C=C\CCCCC[C@H](NC(=O)c5ccn(CC(F)F)n5)C(=O)N4C3)cc(OC(C)C)nc2c1C` [Compound 1011, (2R,6S,12Z,13aS,14aR,16aS)-N-(cyclopropylsulfonyl)-6-({[1-(2,2-difluoroethyl)-1H-pyrazol-3-yl]carbonyl}amino)-2-{[7-methoxy-8-methyl-2-(propan-2-yloxy)quinolin-4-yl]oxy}-5,16-dioxo-1,2,3,6,7,8,9,10,11,13a,14,15,16,16a-tetradecahydrocyclopropa[e]pyrrolo[1,2-a][1,4]diazacyclopentadecine-14a(5H)-carboxamide]: 3.9 nM, 0.24 nM, 6.4 nM, 0.43 nM and 0.35 nM.
The matching figures for `COc1c(F)ccc2c(O[C@@H]3C[C@H]4C(=O)N[C@]5(C(=O)NS(=O)(=O)C6(C)CC6)C[C@H]5/C=C\CCCCC[C@H](NC(=O)c5ccn(C)n5)C(=O)N4C3)cc(OC(C)C)nc12` [Compound 1013, (2R,6S,12Z,13aS,14aR,16aS)-2-{[7-fluoro-8-methoxy-2-(propan-2-yloxy)quinolin-4-yl]oxy}-N-[(1-methylcyclopropyl)sulfonyl]-6-{[(1-methyl-1H-pyrazol-3-yl)carbonyl]amino}-5,16-dioxo-1,2,3,6,7,8,9,10,11,13a,14,15,16,16a-tetradecahydrocyclopropa[e]pyrrolo[1,2-a][1,4]diazacyclopentadecine-14a(5H)-carboxamide]: 1.6 nM, 0.45 nM, 0.75 nM, 0.5 nM and 0.37 nM.
